Measurements published in ChEMBL document CHEMBL2150925, “The Synthesis and Antimicrobial Activity of Heterocyclic Derivatives of Totarol” (ACS Med Chem Lett, 2012).
Values after ≈ are worked out from the molar mass of the structure shown. Active and inactive are the calls of the source. The calls are words filed in the database; no cut-off is given here.

Key:
[1] = test system: Bacillus subtilis; test: Antibacterial activity against Bacillus subtilis 168 after 16 hrs; format: functional; conditions: subsp. subtilis str. 168, 16 h
[2] = test system: Bacillus subtilis; test: Ratio of totarol MIC to compound MIC for Bacillus subtilis 168; format: functional, subsp. subtilis str. 168
[3] = molecular target: T1, Cell division protein FtsZ (Bacillus subtilis (strain 168)) (UniProt P17865); test: Inhibition of Bacillus subtilis FtsZ GTPase activity up to 64 uM by enzyme-coupled assay
T1 sequence (whole entry): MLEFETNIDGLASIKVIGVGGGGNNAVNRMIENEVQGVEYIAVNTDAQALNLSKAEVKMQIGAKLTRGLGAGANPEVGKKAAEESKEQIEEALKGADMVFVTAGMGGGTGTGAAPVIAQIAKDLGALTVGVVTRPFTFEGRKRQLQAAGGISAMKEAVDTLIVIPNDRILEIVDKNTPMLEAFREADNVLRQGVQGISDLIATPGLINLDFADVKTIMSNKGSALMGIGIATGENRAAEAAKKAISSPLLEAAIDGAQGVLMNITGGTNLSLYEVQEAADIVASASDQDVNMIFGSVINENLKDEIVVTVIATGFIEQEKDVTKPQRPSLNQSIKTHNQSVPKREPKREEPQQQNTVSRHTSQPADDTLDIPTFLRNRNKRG

[4] = molecular target: T1, Cell division protein FtsZ (Bacillus subtilis (strain 168)); test: Inhibition of Bacillus subtilis FtsZ GTPase activity by enzyme-coupled assay in presence of 0.01% triton X-100
[5] = molecular target: T2, Cell division protein FtsZ (Bacillus subtilis (strain 168), UniProt P17865); test: Inhibition of Bacillus subtilis FtsZ GTPase activity by enzyme-coupled assay
T2 sequence (P17865 whole entry): T1 sequence (whole entry)

Compound	MIC [1] [µM]	other results
COc1ccc2c(c1C(C)C)CC[C@H]1C(C)(C)C(=O)/C(=C\O)C[C@]21C	> 160	
CC(C)c1c(O)ccc2c1CC[C@H]1C(C)(C)c3[nH]ncc3C[C@]21C	> 160	
CC(C)c1c(O)ccc2c1CC[C@H]1C(C)(C)c3c(cnn3-c3ccccc3)C[C@]21C	> 160	
CC(C)c1c(O)ccc2c1CC[C@H]1C(C)(C)c3oncc3C[C@]21C	40 (≈ 13 µg/mL)	
CC(C)c1c(O)ccc2c1CC[C@H]1C(C)(C)c3[nH]c4ccccc4c3C[C@]21C	2.5 (≈ 0.934 µg/mL)	Ratio [2]: 4; inhibition [3]: inactive
CC(C)c1c(O)ccc2c1CC[C@H]1C(C)(C)/C(=N/O)CC[C@]21C	> 160	
CC(C)c1c(O)ccc2c1CC[C@H]1C(C)(C)NC(=O)CC[C@]21C	> 160	
CC(C)c1c(O)ccc2c1CC[C@H]1C(C)(C)C(N)CC[C@]21C (some centres not stated)	> 160	
CC(C)c1c(O)ccc2c1NC[C@H]1C(C)(C)CCC[C@]21C	20 (≈ 5.75 µg/mL)	
CC(=O)N1C[C@H]2C(C)(C)CCC[C@]2(C)c2ccc(O)c(C(C)C)c21	> 256	
COc1ccc2c(c1C(C)C)CC[C@H]1C(C)(C)c3[nH]c4ccc(C#N)cc4c3C[C@]21C (racemic)	> 100	
CC(C)c1c(O)ccc2c1CC[C@H]1C(C)(C)c3[nH]c4c(Cl)cc(Cl)cc4c3C[C@]21C (racemic)	0.78 (≈ 0.345 µg/mL)	
CC(C)c1c(O)ccc2c1CC[C@H]1C(C)(C)c3[nH]c4ccc(C(F)(F)F)cc4c3C[C@]21C (racemic)	0.78 (≈ 0.344 µg/mL)	
CC(C)c1c(O)ccc2c1CC[C@H]1C(C)(C)c3[nH]c4ccc(C#N)cc4c3C[C@]21C (racemic)	0.78 (≈ 0.311 µg/mL)	inhibition [3]: inactive
CC(C)c1c(O)ccc2c1CC[C@H]1C(C)(C)c3[nH]c4ccc(F)cc4c3C[C@]21C (racemic)	80 (≈ 31.3 µg/mL)	
CCc1ccc2[nH]c3c(c2c1)C[C@]1(C)c2ccc(O)c(C(C)C)c2CC[C@H]1C3(C)C (racemic)	2.5 (≈ 1 µg/mL)	
CC(C)c1c(O)ccc2c1CC[C@H]1C(C)(C)c3[nH]c4ccc(S(N)(=O)=O)cc4c3C[C@]21C (racemic)	5.5 (≈ 2.49 µg/mL)	
Cc1ccc2c3c([nH]c2c1C)C(C)(C)[C@@H]1CCc2c(ccc(O)c2C(C)C)[C@@]1(C)C3 (racemic)	11 (≈ 4.42 µg/mL)	
CCc1cccc2c3c([nH]c12)C(C)(C)[C@@H]1CCc2c(ccc(O)c2C(C)C)[C@@]1(C)C3 (racemic)	1 (≈ 0.402 µg/mL)	
CC(C)c1c(O)ccc2c1CC[C@H]1C(C)(C)c3[nH]c4c(O)cccc4c3C[C@]21C (racemic)	6.3 (≈ 2.45 µg/mL)	
CC(C)c1c(O)ccc2c1CC[C@H]1C(C)(C)CCC[C@]21C [TOTAROL]	2.5 (≈ 0.716 µg/mL)	inhibition [4]: inactive; IC50 [5]: 24 µM
CN[C@H](CC(C)C)C(=O)N[C@H]1C(=O)N[C@@H](CC(N)=O)C(=O)N[C@H]2C(=O)N[C@H]3C(=O)N[C@H](C(=O)N[C@H](C(=O)O)c4cc(O)cc(O)c4-c4cc3ccc4O)[C@H](O)c3ccc(c(Cl)c3)Oc3cc2cc(c3O[C@@H]2O[C@H](CO)[C@@H](O)[C@H](O)[C@H]2O[C@H]2C[C@](C)(N)[C@H](O)[C@H](C)O2)Oc2ccc(cc2Cl)[C@H]1O [VANCOMYCIN]	0.63 (≈ 0.913 µg/mL)	
